This passage reports IC50 results from US10179777B2, “3-(1H-benzimidazol-2-yl)-1H-pyridin-2-one derivatives” (MERCK PATENT GMBH, priority 2015, dated 2019).

The term IC50 denotes the midpoint of a concentration-inhibition curve. Read a low IC50 as greater potency.

The structures appear in SMILES notation.

Experiment [1] addresses T1, ALK2 (GST-modified kinase domain ACVR1(145-509)) (Homo sapiens, UniProt Q04771).
T1 construct: N-terminally GST-modified kinase domain ACVR1(145-509); GST (N)
T1 sequence (Q04771 145-509): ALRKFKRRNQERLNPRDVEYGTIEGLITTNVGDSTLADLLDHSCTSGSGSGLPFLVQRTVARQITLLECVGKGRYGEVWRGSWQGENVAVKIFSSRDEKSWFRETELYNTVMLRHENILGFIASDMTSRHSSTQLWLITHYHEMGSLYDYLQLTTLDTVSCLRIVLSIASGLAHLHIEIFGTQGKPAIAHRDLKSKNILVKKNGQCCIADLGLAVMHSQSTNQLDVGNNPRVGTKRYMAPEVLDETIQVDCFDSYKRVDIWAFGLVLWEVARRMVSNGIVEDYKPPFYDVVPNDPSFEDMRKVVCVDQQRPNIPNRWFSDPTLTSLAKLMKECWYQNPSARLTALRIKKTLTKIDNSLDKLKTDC
Briefly: ALK2 kinase inhibition assay (33P-ATP filter binding, Reaction Biology). The conditions noted are these: casein substrate, 20 μM ATP (Km ATP), 120 min ambient temperature. It counts as biochemical. How it is done:
(§1) The protein sequences of the kinases targeted and accompanying information are described in publically available data base http://www.uniprot.org/uniprot/for ALK1 www.uniprot.org/uniprot/P37023, for ALK2 www.uniprot.org/uniprot/Q04771 and for ALK5 www.uniprot.org/uniprot/P36897. IC50 determination of the novel inhibitors described was performed at Reaction Biology Corp., Malvern, Pa., USA, with assay conditions open to public at www.reactionbiology.com/webapps/site/KinaseDetail.aspx?page=Kinases&id=1, and www.reactionbiology.com/webapps/site/Kinase Assay Protocol.aspx. In addition, they were specified previously in Anastassiadis et al. Nat. Biotechnol. 29(11): 1039-1045. doi:10.1038/nbt.2017.
A2) ALK2 Kinase Inhibition Assay
(§2) was performed similar to procedure A1 with N-terminally GST-modified kinase domain ACVR1(145-509) and 1 mg/ml Casein as substrate in reaction buffer of 20 mM HEPES pH 7.5, 10 mM MgCl2, 1 mM EGTA, 0.02% Brij, 0.02 mg/ml BSA, 0.1 mM Na3VO4, 2 mM DTT, 1% DMSO. […] Reactions were carried out at ambient temperature for 120 min, followed by spotting of the reactions onto P81 ion exchange filter paper (Whatman Inc., Picataway, N.J., USA). Unbound phosphate was removed by extensive washing of filters in 0.75% phosphoric acid. After subtraction of background derived from control reactions without enzyme activity, kinase activity data was expressed as the percent remaining kinase activity in test samples compared to vehicle (DMSO) reactions. IC50 values and curve fits were obtained using Prism (GraphPad Software).

In experiment [2] the target is T2, ALK1 (GST-modified kinase domain ACVRL1 (139-503)) (Homo sapiens, UniProt P37023).
T2 construct: N-terminally GST-modified kinase domain ACVRL1 (139-503); GST (N)
T2 sequence (P37023 139-503): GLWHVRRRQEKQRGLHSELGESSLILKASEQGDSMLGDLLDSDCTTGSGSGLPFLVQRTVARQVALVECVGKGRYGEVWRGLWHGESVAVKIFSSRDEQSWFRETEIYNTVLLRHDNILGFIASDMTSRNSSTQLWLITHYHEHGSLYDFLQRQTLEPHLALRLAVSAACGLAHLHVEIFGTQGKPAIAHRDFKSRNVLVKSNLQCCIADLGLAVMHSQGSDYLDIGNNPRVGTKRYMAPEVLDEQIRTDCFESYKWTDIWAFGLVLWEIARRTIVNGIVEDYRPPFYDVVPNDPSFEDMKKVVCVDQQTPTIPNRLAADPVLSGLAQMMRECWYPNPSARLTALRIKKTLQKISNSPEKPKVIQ
Briefly: ALK1 kinase inhibition assay (33P-ATP filter binding, Reaction Biology). It counts as biochemical. Conditions: casein substrate, 100 μM ATP (Km ATP), 120 min ambient temperature. How it is done:
as §1
A1) ALK1 Kinase Inhibition Assay
as §2, with “performed” for “performed similar to procedure A1”, “domain ACVRL1 (139-503)” for “domain ACVR1(145-509)”, “and 20” for “and 1”

With `Cc1ccc2nc(-c3cc(-c4ccncc4)c[nH]c3=O)[nH]c2c1` [Compound A4, 5-(5-Methyl-1H-benzimidazol-2-yl)-1H-[3,4′]bipyridinyl-6-one], the results for the IC50 in experiment [1] and in experiment [2] were 5400 nM and 9.2 µM, respectively.
The like results for `CN1CCN(c2ccc3[nH]c(-c4cc(-c5cnn(C)c5)c[nH]c4=O)nc3c2)CC1` [Compound A30, 3-[5-(4-Methyl-piperazin-1-yl)-1H-benzimidazol-2-yl]-5-(1-methyl-1H-pyrazol-4-yl)-1H-pyridin-2-one] were, in that order, 710 nM and 1.8 µM.
In the case of `O=c1[nH]cc(-c2ccnc3ccccc23)cc1-c1nc2ccccc2[nH]1` [Compound A2, 3-(1H-Benzimidazol-2-yl)-5-quinolin-4-yl-1H-pyridin-2-one], the IC50 was determined as 630 nM in experiment [1] and 1.4 µM in experiment [2].
Take `O=c1[nH]cc(-c2ccnc3ccccc23)cc1-c1nc2cc(Oc3ccncc3)ccc2[nH]1` [Compound A10, 3-[5-(Pyridin-4-yloxy)-1H-benzimidazol-2-yl]-5-quinolin-4-yl-1H-pyridin-2-one]: the results for the IC50 in experiment [1] and in experiment [2] were 430 nM and 0.95 µM, respectively.
Compound `O=c1[nH]cc(-c2c[nH]c3ccccc23)cc1-c1nc2cc(N3CCNCC3)ccc2[nH]1` [Compound A15, 5-(1H-Indol-3-yl)-3-(6-piperazin-1-yl-1H-benzimidazol-2-yl)-1H-pyridin-2-one] came in with an IC50 in experiment [2] of 3.5 µM.
In the case of `CN1CCN(c2ccc3[nH]c(-c4cc(-c5cccnc5)c[nH]c4=O)nc3c2)CC1` [Compound A31, 5-[5-(4-Methyl-piperazin-1-yl)-1H-benzimidazol-2-yl]-1H-[3,3′]bipyridinyl-6-one], the IC50 in experiment [1] stood at 3400 nM; in experiment [2], 5.5 µM.
The corresponding values for `Cc1cccc2[nH]c(-c3cc(-c4ccncc4)c[nH]c3=O)nc12` [Compound A5, 5-(4-Methyl-1H-benzimidazol-2-yl)-1H-[3,4′]bipyridinyl-6-one] are 5700 nM and 10 µM.
Turning to `CN1CCN(c2ccc3[nH]c(-c4cc(-c5ccncc5)c[nH]c4=O)nc3c2)CC1` [Compound A28, 5-[5-(4-Methyl-piperazin-1-yl)-1H-benzimidazol-2-yl]-1H-[3,4′]bipyridinyl-6-one], in experiment [1], the IC50 was determined as 99 nM.
For `O=c1[nH]cc(-c2ccnc3[nH]ccc23)cc1-c1nc2ccccc2[nH]1` [Compound A39, 3-(1H-Benzimidazol-2-yl)-5-(1H-pyrrolo[2,3-b]pyridin-4-yl)-1H-pyridin-2-one], the IC50 in experiment [1] was determined as 120 nM; in experiment [2], 0.19 µM.
Consider `CN1CCC(NC(=O)c2ccc3[nH]c(-c4cc(-c5ccncc5)c[nH]c4=O)nc3c2)CC1` [Compound A58, 2-(6-Oxo-1,6-dihydro-[3,4′]bipyridinyl-5-yl)-3H-benzimidazole-5-carboxylic acid (1-methyl-piperidin-4-yl)-amide], for which the IC50 was found to be 3100 nM in experiment [1] and 3.3 µM in experiment [2].
As to `CCN(CC)CCNC(=O)c1ccc2nc(-c3cc(-c4ccncc4)c[nH]c3=O)[nH]c2c1` [Compound A57, 2-(6-Oxo-1,6-dihydro-[3,4′]bipyridinyl-5-yl)-3H-benzimidazole-5-carboxylic acid (2-diethylamino-ethyl)-amide], the IC50 in experiment [2] was determined as 3.1 µM.
With `CC(=O)NCc1ccc2[nH]c(-c3cc(-c4ccncc4)c[nH]c3=O)nc2c1` [Compound A55, N-[2-(6-Oxo-1,6-dihydro-[3,4′]bipyridinyl-5-yl)-1H-benzimidazol-5-ylmethyl]-acetamide], the IC50 in experiment [1] is 3100 nM; in experiment [2], 6.8 µM.
Regarding `NCc1ccc2[nH]c(-c3cc(-c4ccncc4)c[nH]c3=O)nc2c1` [Compound A54, 5-(5-Aminomethyl-1H-benzimidazol-2-yl)-1H-[3,4′]bipyridinyl-6-one], the IC50 in experiment [1] is 1100 nM; in experiment [2] it was 2.6 µM.
As for `O=c1[nH]cc(-c2ccncc2)cc1-c1nc2ccc(Cl)cc2[nH]1` [Compound A3, 5-(5-Chloro-1H-benzimidazol-2-yl)-1H-[3,4′]bipyridinyl-6-one], in experiment [2], the IC50 turned out to be 8.9 µM.
